Calls of active or inactive are those of the source. The rule behind the calls is not given here.
Test system: CCRIS mutagenicity, Ames/micronucleus/aberration tests
Assay: CCRIS mutagenicity studies
Conditions: Test System: AMES SALMONELLA TYPHIMURIUM

Measured: mutagenic call

CCN(N=O)c1ccccc1
inactive: Strain/Indicator: TA98, Metabolic Activation: HAMSTER, LIVER, S-9, AROCLOR 1254, Method: PREINCUBATION inactive; negative | Strain/Indicator: TA98, Metabolic Activation: HAMSTER, LIVER, S-9, AROCLOR 1254, Method: STANDARD PLATE inactive; negative | Strain/Indicator: TA98, Metabolic Activation: HAMSTER, LIVER, S-9, Method: PREINCUBATION inactive; negative | Strain/Indicator: TA98, Metabolic Activation: HAMSTER, LIVER, S-9, Method: STANDARD PLATE inactive; negative | Strain/Indicator: TA98, Metabolic Activation: MOUSE, LIVER, S-9, AROCLOR 1254, Method: PREINCUBATION inactive; negative | Strain/Indicator: TA98, Metabolic Activation: MOUSE, LIVER, S-9, AROCLOR 1254, Method: STANDARD PLATE inactive; negative | Strain/Indicator: TA98, Metabolic Activation: MOUSE, LIVER, S-9, Method: PREINCUBATION inactive; negative | Strain/Indicator: TA98, Metabolic Activation: MOUSE, LIVER, S-9, Method: STANDARD PLATE inactive; negative | Strain/Indicator: TA98, Metabolic Activation: NONE, Method: PREINCUBATION inactive; negative | Strain/Indicator: TA98, Metabolic Activation: NONE, Method: STANDARD PLATE inactive; negative | Strain/Indicator: TA98, Metabolic Activation: RAT, LIVER, S-9, AROCLOR 1254, Method: PREINCUBATION inactive; negative | Strain/Indicator: TA98, Metabolic Activation: RAT, LIVER, S-9, AROCLOR 1254, Method: STANDARD PLATE inactive; negative | Strain/Indicator: TA98, Metabolic Activation: RAT, LIVER, S-9, Method: PREINCUBATION inactive; negative | Strain/Indicator: TA98, Metabolic Activation: RAT, LIVER, S-9, Method: STANDARD PLATE inactive; negative | Strain/Indicator: TA100, Metabolic Activation: HAMSTER, LIVER, S-9, AROCLOR 1254, Method: PREINCUBATION inactive; negative | Strain/Indicator: TA100, Metabolic Activation: HAMSTER, LIVER, S-9, AROCLOR 1254, Method: STANDARD PLATE inactive; negative | Strain/Indicator: TA100, Metabolic Activation: HAMSTER, LIVER, S-9, Method: PREINCUBATION inactive; negative | Strain/Indicator: TA100, Metabolic Activation: HAMSTER, LIVER, S-9, Method: STANDARD PLATE inactive; negative | Strain/Indicator: TA100, Metabolic Activation: MOUSE, LIVER, S-9, AROCLOR 1254, Method: PREINCUBATION inactive; negative | Strain/Indicator: TA100, Metabolic Activation: MOUSE, LIVER, S-9, AROCLOR 1254, Method: STANDARD PLATE inactive; negative | Strain/Indicator: TA100, Metabolic Activation: MOUSE, LIVER, S-9, Method: PREINCUBATION inactive; negative | Strain/Indicator: TA100, Metabolic Activation: MOUSE, LIVER, S-9, Method: STANDARD PLATE inactive; negative | Strain/Indicator: TA100, Metabolic Activation: NONE, Method: PREINCUBATION inactive; negative | Strain/Indicator: TA100, Metabolic Activation: NONE, Method: STANDARD PLATE inactive; negative | Strain/Indicator: TA100, Metabolic Activation: RAT, LIVER, S-9, AROCLOR 1254, Method: PREINCUBATION inactive; negative | Strain/Indicator: TA100, Metabolic Activation: RAT, LIVER, S-9, AROCLOR 1254, Method: STANDARD PLATE inactive; negative | Strain/Indicator: TA100, Metabolic Activation: RAT, LIVER, S-9, Method: PREINCUBATION inactive; negative | Strain/Indicator: TA100, Metabolic Activation: RAT, LIVER, S-9, Method: STANDARD PLATE inactive; negative | Strain/Indicator: TA1535, Metabolic Activation: HAMSTER, LIVER, S-9, AROCLOR 1254, Method: PREINCUBATION inactive; negative | Strain/Indicator: TA1535, Metabolic Activation: HAMSTER, LIVER, S-9, AROCLOR 1254, Method: STANDARD PLATE inactive; negative | Strain/Indicator: TA1535, Metabolic Activation: HAMSTER, LIVER, S-9, Method: PREINCUBATION inactive; negative | Strain/Indicator: TA1535, Metabolic Activation: HAMSTER, LIVER, S-9, Method: STANDARD PLATE inactive; negative | Strain/Indicator: TA1535, Metabolic Activation: MOUSE, LIVER, S-9, AROCLOR 1254, Method: PREINCUBATION inactive; negative | Strain/Indicator: TA1535, Metabolic Activation: MOUSE, LIVER, S-9, AROCLOR 1254, Method: STANDARD PLATE inactive; negative | Strain/Indicator: TA1535, Metabolic Activation: MOUSE, LIVER, S-9, Method: PREINCUBATION inactive; negative | Strain/Indicator: TA1535, Metabolic Activation: MOUSE, LIVER, S-9, Method: STANDARD PLATE inactive; negative | Strain/Indicator: TA1535, Metabolic Activation: NONE, Method: PREINCUBATION inactive; negative | Strain/Indicator: TA1535, Metabolic Activation: NONE, Method: STANDARD PLATE inactive; negative | Strain/Indicator: TA1535, Metabolic Activation: RAT, LIVER, S-9, AROCLOR 1254, Method: PREINCUBATION inactive; negative | Strain/Indicator: TA1535, Metabolic Activation: RAT, LIVER, S-9, AROCLOR 1254, Method: STANDARD PLATE inactive; negative | Strain/Indicator: TA1535, Metabolic Activation: RAT, LIVER, S-9, Method: PREINCUBATION inactive; negative | Strain/Indicator: TA1535, Metabolic Activation: RAT, LIVER, S-9, Method: STANDARD PLATE inactive; negative

— PubChem BioAssay AID1259407 (Chemical Carcinogenesis Research Information System (CCRIS), 2018)
